Patent publication US20250084039A1, “4-SUBSTITUTED AMINOISOQUINOLINE DERIVATIVES” (Purdue Research Foundation, priority 2016, published 2025)

Assays:
HeLa = assay: Proliferation inhibition at single concentration (CellTiter-Blue); assay type: cell-based; details: 1 μM compound
MCF-7 = assay: as above; assay type: cell-based; details: 1 μM compound
HCT116 = assay: as above; assay type: cell-based; details: 1 μM compound
MV-4-11 = assay: as above; assay type: cell-based; details: 1 μM compound
DAPK1 = DAPK1 (Homo sapiens (Human), UniProt P53355); assay: Reaction Biology HotSpot kinase assay; assay type: biochemical; details: 500 nM compound; read-out: Percentage kinase inhibition DAPK1
Method in brief: (§1)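 Buffer 20 mM HEPES pH 7.5 / 10 mM MgCl2 / 1 mM EGTA / 0.02% Brij35 / 0.02 mg/mL BSA / 0.1 mM Na3VO4 / 2 mM DTT / 1% DMSO. Cpd 500 nM, 20 min. [γ-33P]ATP mix at 100 μM, 2 h RT. P81 spotting; % activity remaining vs DMSO.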

RIPK2 = RIPK2 (Homo sapiens (Human), UniProt O43353); assay: Reaction Biology HotSpot kinase assay; assay type: biochemical; details: 500 nM compound; read-out: Percentage kinase inhibition RIPK2
Chain of RIPK2 (O43353 whole entry): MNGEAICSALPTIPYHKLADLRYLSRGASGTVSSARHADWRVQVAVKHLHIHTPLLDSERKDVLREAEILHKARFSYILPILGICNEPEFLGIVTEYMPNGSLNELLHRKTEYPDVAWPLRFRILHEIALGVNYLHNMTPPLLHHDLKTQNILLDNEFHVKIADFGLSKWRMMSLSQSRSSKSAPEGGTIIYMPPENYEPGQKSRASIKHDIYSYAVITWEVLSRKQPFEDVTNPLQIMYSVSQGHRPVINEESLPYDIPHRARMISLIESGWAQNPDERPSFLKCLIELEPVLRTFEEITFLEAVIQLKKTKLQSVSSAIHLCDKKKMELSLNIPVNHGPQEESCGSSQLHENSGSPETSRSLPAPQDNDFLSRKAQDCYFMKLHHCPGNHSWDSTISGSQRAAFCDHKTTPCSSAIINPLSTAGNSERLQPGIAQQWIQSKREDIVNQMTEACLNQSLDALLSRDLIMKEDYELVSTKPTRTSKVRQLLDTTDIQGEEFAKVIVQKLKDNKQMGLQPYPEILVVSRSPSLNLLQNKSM
Method in brief: as §1

RIPK3 = RIPK3 (Homo sapiens (Human), UniProt Q9Y572); assay: Reaction Biology HotSpot kinase assay; assay type: biochemical; details: 500 nM compound; read-out: Percentage kinase inhibition RIPK3
Chain of RIPK3 (Q9Y572 whole entry): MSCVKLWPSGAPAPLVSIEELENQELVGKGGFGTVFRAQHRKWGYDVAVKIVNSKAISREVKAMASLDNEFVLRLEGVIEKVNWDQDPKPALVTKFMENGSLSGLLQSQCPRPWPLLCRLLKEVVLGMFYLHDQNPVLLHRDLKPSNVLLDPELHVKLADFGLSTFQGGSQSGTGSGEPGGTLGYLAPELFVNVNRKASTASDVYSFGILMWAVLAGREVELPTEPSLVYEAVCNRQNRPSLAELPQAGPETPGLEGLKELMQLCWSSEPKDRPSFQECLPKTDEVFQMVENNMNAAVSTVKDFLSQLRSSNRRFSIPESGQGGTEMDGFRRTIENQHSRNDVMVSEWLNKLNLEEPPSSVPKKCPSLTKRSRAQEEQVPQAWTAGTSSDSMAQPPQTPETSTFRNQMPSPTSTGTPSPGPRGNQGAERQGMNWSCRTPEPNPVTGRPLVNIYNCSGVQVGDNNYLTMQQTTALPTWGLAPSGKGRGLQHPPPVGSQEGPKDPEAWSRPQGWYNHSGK
Method in brief: as §1

PDGFRb = PDGFRb (Homo sapiens (Human), UniProt P09619); assay: Reaction Biology HotSpot kinase assay; assay type: biochemical; details: 500 nM compound; read-out: Percentage kinase inhibition PDGFRb
Chain of PDGFRb (P09619 33-1106): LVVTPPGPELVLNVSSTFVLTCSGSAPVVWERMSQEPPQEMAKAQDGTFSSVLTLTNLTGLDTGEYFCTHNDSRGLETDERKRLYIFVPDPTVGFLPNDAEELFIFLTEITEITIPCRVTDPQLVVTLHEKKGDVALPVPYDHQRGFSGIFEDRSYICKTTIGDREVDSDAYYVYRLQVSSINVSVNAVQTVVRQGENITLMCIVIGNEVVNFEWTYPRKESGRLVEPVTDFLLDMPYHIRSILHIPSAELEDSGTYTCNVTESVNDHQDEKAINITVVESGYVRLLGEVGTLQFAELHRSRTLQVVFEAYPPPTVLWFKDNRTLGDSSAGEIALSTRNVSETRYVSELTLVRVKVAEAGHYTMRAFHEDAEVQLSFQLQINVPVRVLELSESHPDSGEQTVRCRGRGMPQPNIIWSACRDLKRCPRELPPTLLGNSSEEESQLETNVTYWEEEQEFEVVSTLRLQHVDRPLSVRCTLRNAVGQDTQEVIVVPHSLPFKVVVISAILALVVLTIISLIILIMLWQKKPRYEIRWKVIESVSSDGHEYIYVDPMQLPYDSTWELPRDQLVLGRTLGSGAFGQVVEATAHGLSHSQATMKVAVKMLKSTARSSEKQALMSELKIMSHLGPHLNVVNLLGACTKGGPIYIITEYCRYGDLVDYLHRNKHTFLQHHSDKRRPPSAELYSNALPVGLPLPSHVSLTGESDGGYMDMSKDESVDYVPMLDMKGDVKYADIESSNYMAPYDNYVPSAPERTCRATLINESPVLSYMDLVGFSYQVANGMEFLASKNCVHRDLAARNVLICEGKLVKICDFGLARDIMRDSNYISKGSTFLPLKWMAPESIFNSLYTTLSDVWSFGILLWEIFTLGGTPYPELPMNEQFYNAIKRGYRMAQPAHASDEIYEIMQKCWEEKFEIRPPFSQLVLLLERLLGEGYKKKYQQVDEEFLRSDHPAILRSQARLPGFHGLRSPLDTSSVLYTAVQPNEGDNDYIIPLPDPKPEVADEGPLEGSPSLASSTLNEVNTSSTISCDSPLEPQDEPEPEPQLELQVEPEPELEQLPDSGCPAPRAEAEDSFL
Method in brief: as §1

MEKK2 = MEKK2 (Homo sapiens (Human), UniProt Q9Y2U5); assay: Reaction Biology HotSpot kinase assay; assay type: biochemical; details: 500 nM compound; read-out: Percentage kinase inhibition MEKK2
Method in brief: as §1

FGFR3 = FGFR3 (Homo sapiens (Human), UniProt P22607); assay: Reaction Biology HotSpot kinase assay; assay type: biochemical; details: 500 nM compound; read-out: Percentage kinase inhibition FGFR3
Chain of FGFR3 (P22607 23-806): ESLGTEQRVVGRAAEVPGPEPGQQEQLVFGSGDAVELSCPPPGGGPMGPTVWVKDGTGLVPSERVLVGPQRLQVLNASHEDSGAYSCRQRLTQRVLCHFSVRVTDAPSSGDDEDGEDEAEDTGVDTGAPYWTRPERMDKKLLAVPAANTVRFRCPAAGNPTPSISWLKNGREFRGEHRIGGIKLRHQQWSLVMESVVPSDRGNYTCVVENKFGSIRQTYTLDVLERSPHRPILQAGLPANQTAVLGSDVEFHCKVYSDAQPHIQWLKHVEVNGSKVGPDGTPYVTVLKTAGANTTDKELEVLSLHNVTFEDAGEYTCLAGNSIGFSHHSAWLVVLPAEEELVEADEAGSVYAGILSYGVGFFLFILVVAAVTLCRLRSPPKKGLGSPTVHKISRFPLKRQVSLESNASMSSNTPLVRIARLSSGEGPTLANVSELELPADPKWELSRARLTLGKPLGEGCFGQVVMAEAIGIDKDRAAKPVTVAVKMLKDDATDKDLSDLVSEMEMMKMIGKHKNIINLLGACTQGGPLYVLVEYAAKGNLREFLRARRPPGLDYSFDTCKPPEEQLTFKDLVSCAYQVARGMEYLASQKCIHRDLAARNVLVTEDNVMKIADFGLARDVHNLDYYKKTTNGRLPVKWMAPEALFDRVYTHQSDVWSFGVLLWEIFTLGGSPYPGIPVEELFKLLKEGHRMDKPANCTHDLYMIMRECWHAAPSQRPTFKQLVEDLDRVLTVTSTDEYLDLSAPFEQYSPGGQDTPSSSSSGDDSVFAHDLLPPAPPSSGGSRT
Method in brief: as §1

RIPK4 = RIPK4 (Homo sapiens (Human), UniProt P57078); assay: Reaction Biology HotSpot kinase assay; assay type: biochemical; details: 500 nM compound; read-out: Percentage kinase inhibition RIPK4
Chain of RIPK4 (P57078 whole entry): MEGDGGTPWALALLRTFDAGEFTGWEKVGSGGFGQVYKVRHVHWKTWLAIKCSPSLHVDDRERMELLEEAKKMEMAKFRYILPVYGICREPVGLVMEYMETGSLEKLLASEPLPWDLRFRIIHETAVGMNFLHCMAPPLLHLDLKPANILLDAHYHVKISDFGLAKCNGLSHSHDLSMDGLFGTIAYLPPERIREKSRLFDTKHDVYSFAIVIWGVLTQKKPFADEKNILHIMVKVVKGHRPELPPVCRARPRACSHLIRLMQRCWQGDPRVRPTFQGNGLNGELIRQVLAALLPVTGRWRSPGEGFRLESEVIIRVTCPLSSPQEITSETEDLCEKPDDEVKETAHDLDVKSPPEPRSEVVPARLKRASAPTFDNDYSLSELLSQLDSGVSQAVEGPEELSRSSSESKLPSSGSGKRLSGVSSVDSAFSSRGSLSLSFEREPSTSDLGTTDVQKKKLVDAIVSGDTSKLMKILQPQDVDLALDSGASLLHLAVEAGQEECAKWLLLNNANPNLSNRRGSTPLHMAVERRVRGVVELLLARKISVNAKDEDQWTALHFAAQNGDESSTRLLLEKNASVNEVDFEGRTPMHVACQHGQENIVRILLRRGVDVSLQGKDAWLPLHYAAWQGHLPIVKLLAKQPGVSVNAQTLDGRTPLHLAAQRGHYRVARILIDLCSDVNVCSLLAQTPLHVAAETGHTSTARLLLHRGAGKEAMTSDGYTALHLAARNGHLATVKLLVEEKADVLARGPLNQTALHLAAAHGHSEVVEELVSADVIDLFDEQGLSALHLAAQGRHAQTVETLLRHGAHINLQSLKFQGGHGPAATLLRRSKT
Method in brief: as §1

FGFR2 = FGFR2 (Homo sapiens (Human), UniProt P21802); assay: Reaction Biology HotSpot kinase assay; assay type: biochemical; details: 500 nM compound; read-out: Percentage kinase inhibition FGFR2
Chain of FGFR2 (P21802 22-821): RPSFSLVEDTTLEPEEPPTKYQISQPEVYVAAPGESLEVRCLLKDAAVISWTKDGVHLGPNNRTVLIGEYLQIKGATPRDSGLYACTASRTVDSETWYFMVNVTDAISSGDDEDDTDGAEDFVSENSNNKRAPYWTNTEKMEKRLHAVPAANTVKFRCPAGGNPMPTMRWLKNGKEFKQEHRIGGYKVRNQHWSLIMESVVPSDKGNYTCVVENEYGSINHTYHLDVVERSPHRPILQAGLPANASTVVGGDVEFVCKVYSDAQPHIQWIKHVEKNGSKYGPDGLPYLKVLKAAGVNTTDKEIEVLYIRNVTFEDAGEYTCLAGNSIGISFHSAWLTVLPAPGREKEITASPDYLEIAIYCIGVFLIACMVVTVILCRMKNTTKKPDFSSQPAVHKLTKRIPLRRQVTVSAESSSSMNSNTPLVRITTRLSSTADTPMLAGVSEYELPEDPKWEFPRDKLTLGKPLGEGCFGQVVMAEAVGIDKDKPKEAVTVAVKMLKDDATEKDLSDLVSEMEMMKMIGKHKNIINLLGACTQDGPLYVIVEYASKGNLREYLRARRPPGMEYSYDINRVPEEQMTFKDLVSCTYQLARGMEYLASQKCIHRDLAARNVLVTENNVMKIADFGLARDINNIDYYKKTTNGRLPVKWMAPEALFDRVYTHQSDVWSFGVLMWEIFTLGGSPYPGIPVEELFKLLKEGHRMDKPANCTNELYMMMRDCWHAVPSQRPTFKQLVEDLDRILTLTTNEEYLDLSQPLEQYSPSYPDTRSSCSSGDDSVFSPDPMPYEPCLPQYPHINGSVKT
Method in brief: as §1

FGFR4 = FGFR4 (Homo sapiens (Human), UniProt P22455); assay: Reaction Biology HotSpot kinase assay; assay type: biochemical; details: 500 nM compound; read-out: Percentage kinase inhibition FGFR4
Method in brief: as §1

FLT3 phosphorylation = assay: Western blot in MV4-11; assay type: cell-based, human
Method: Total protein extracts were prepared using RIPA buffer (SIGMA) supplemented with Complete Mini™ protease inhibitor and PHOStop™ phosphatase inhibitors (Roche). […] The membrane was blocked with 5% dry milk in 1×TBS/0.1% Tween 20 (TBST) for at least 1 h at room temperature and incubated with human specific primary antibodies: FLT3, Phospho-FLT3, c-Myc (Cell Signaling Technologies), KRAS (Santa Cruz), or mouse anti-β-actin (SIGMA) overnight at 4° C. The membrane was washed 3 times in TBST and incubated with a horseradish peroxidase-conjugated secondary anti-rabbit or anti-mouse antibody (Cell Signaling Technologies) for 1 h at room temperature. Blots were again washed and the signal was detected with SuperSignal West Femto Chemiluminescent Substrate (Pierce) and exposed to HyBlot CL® autoradiography film (Denville).

[1] = molecular target: ABL1 (T315I) non-phosphorylated (Homo sapiens (Human), UniProt P00519, T315I); assay: DiscoverX Kd Elect binding
CDK6 = CDK6 (Homo sapiens (Human), UniProt Q00534); assay: DiscoverX Kd Elect binding
Method: (§2) HCK is expressed more in human primary leukemic stem cells than in human normal hematopoietic stem cells. […] Other protein kinases such as SYK, BRAF, p38 (p38MAPK), PDGFRα/β, FGFR1, RET, FLT4, Tie2 have also been linked to leukemia. […] Thus, it was tested if HSN286 and analogs were also targeting kinases that play critical roles in AML. […] (Table 9). The inhibition of the Src-kinase family could be important clinically because these kinases are downstream of FLT3. In the event of FLT3 mutation, the inhibition of the Src-family kinases could still lead to proliferation inhibition.

CDK9 = CDK9 (Homo sapiens (Human), UniProt P50750); assay: DiscoverX Kd Elect binding
Method: as §2

FGR = FGR (Homo sapiens (Human), UniProt P09769); assay: DiscoverX Kd Elect binding
Chain of FGR (P09769 whole entry): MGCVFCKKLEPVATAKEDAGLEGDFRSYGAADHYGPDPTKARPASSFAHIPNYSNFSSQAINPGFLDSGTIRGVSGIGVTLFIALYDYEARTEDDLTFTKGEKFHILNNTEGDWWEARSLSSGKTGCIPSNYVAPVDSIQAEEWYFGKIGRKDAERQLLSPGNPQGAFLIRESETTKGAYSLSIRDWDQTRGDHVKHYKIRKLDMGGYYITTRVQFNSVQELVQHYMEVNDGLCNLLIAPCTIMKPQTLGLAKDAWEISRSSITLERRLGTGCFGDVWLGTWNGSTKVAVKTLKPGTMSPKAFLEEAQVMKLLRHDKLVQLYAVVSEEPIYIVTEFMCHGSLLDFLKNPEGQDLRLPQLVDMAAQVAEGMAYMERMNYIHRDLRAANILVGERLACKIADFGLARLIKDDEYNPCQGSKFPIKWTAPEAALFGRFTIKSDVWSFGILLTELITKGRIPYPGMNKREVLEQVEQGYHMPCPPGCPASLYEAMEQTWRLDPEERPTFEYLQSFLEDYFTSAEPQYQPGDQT
Method: as §2

DNA-PK = DNA-PK (Homo sapiens (Human), UniProt P78527); assay: Reaction Biology HotSpot kinase assay; assay type: biochemical; details: 500 nM compound; read-out: Percentage kinase inhibition DNA-PK
Method in brief: as §1

FLT3 = FLT3 (Homo sapiens (Human), UniProt P36888); assay: Inhibition of kinase enzymatic activity (IC50); assay type: biochemical; details: in vitro

Row | SMILES | inhibition at 0.5 µM (DAPK1) | inhibition at 0.5 µM (RIPK2) | inhibition at 0.5 µM (RIPK3) | inhibition at 0.5 µM (PDGFRb) | inhibition at 0.5 µM (MEKK2) | inhibition at 0.5 µM (FGFR3) | inhibition at 0.5 µM (RIPK4) | inhibition at 0.5 µM (FGFR2) | inhibition at 0.5 µM (FGFR4) | Kd [1] | Kd (FGR) | inhibition at 0.5 µM (DNA-PK) | other results
1 | CN(C)CC(O)CNC(=O)c1ccc(C#Cc2c(N)ncc3ccc(Cl)cc23)cc1 (stereo not drawn) [HSM1702] |  |  |  |  |  |  |  |  |  |  |  |  | Percent inhibition of proliferation HeLa (HeLa): 17%; Percent inhibition of proliferation MCF-7 (MCF-7): 100%; Percent inhibition of proliferation HCT116 (HCT116): 33%; Percent inhibition of proliferation MV-4-11 (MV-4-11): 99%
2 | Cc1ccc(C(=O)Nc2ccc(CN3CCN(C)CC3)c(C(F)(F)F)c2)cc1C#Cc1cc(N)nc2ccccc12 [HSN285] | 14% | 0% | 0% | 46% | 0% | 0% | 25% | 0% | 0% |  |  |  | 
3 | Cc1ccc(C(=O)Nc2ccc(CN3CCN(C)CC3)c(C(F)(F)F)c2)cc1C#Cc1c(N)ncc2ccc(Cl)cc12 [HSN286] | 9% | 25% | 96% | 96% | 52% | 88% | 32% | 96% | 82% | 29 nM | 7 nM | 0% | inhibition at 1 µM (HeLa; Homo sapiens, HeLa, read-out: Percent inhibition of proliferation HeLa): 100%; inhibition at 1 µM (MCF-7; Homo sapiens, MCF7, read-out: Percent inhibition of proliferation MCF-7): 100%; FLT3 phosphorylation (Western) (FLT3 phosphorylation): inhibited; inhibition at 1 µM (HCT116; Homo sapiens, HCT-116, read-out: Percent inhibition of proliferation HCT116): 100%; inhibition at 1 µM (MV-4-11; Homo sapiens, MV4-11, read-out: Percent inhibition of proliferation MV-4-11): 99%; Kd (CDK6): 28000 nM; Kd (CDK9): 2300 nM
4 | COc1cc2nc(N)nc(C#Cc3cc(C(=O)Nc4ccc(CN5CCN(C)CC5)c(C(F)(F)F)c4)ccc3C)c2cc1OC [HSN325] |  |  |  |  |  |  |  |  |  |  |  | 0% | 
5 | Cc1ccc(C(=O)Nc2ccc(CN3CCN(C)CC3)c(C(F)(F)F)c2)cc1C#Cc1cnc(N)c2ncccc12 [HSN356, 3-((8-amino-1,7-naphthyridin-5-yl)ethynyl)-4-methyl-N-(4-((4-methylpiperazin-1-yl)methyl)-3-(trifluoromethyl)phenyl)benzamide] |  |  |  |  |  |  |  |  |  | 2.4 nM | 7.9 nM |  | IC50 FLT3 enzymatic inhibition (FLT3): single digit
